Test: binding affinity was evaluated by measuring the ability to displace [3H]DPDPE radioligand binding from delta opioid receptor in guinea pig brain membranes

With COc1c(O)ccc2c1C13CCN(CC4CC4)C(C2)[C@]1(OC)CCC(=O)C3 (stereo not given in full) [17-cyclopropylmethyl-4-hydroxy-3,10-dimethoxy-17-azatetracyclo[7.5.3.01,10.02,7]heptadeca-2(7),3,5-trien-13-one] as the compound, how does the Ki read?
The Ki was 14 nM.

For CCCCOc1c(O)ccc2c1C13CCN(CC4CC4)C(C2)[C@]1(OC)CCC(=O)C3 (stereo not given in full) [3-butoxy-17-cyclopropylmethyl-4-hydroxy-10-methoxy-17-azatetracyclo[7.5.3.01,10.02,7]heptadeca-2(7),3,5-trien-13-one], which Ki is on record?
Its Ki is 42 nM.

For COc1c(O)ccc2c1C13CCN(CC4CC4)C(C2)[C@]1(O)CCC(=O)C3 (stereo not given in full) [17-cyclopropylmethyl-4,10-dihydroxy-3-methoxy-17-azatetracyclo[7.5.3.01,10.02,7]heptadeca-2(7),3,5-trien-13-one], which Ki is on record?
The Ki was 334 nM.

With CCO[C@@]12CCC(=O)CC13CCN(CC1CC1)C2Cc1ccc(O)c(OC)c13 (stereo not given in full) [17-cyclopropylmethyl-10-ethoxy-4-hydroxy-3-methoxy-17-azatetracyclo[7.5.3.01,10.02,7]heptadeca-2(7),3,5-trien-13-one] as the compound, how does the Ki read?
The Ki was 21 nM.

Which Ki does the source give for COc1cccc2c1[C@]13CCN(CC4CC4)[C@H](C2)[C@]1(OC)CCC(=O)C3 [Naltrindole analogue] here?
Its Ki is 61 nM.

Reference: BindingDB's records for doi:10.1021/jm00016a010 (University of Innsbruck, 1995)
